Values quoted from earlier work in US20020032197A1 (priority 1998, published 2002).

Tests used:
[1] = test system: young healthy adults; conditions: 5 mg dose
[2] = test system: women with PMDD
[3] = test system: individuals with RSBD; conditions: in vivo
[4] = test system: healthy volunteers exposed to an acute nociceptive stimulus; conditions: single oral dosing, 10 healthy volunteers
[5] = test system: women with PMS; conditions: in vivo
[6] = molecular target: T1, MAO-A (Homo sapiens, UniProt P21397)
T1 sequence (P21397 1-527): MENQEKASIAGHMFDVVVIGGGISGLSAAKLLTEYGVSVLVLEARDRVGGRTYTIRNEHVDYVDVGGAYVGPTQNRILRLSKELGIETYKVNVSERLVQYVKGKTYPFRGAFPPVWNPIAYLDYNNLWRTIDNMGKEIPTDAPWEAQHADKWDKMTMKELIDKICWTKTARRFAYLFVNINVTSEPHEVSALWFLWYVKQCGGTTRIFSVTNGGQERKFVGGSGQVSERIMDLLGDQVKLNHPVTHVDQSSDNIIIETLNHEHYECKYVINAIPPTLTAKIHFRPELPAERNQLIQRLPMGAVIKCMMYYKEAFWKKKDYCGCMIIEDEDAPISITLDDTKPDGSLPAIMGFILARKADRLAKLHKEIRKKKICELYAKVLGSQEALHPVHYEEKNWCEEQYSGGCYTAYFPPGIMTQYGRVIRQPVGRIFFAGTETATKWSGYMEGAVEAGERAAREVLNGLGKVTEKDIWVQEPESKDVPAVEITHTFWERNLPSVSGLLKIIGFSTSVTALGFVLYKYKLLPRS

[7] = molecular target: T1, MAO-A; conditions: ex vivo
[8] = test system: dopaminergic receptors; conditions: in vitro
[9] = test system: adrenergic receptors; conditions: in vitro
[10] = test system: benzodiazepine receptors; conditions: in vitro
[11] = test system: opioid receptors; conditions: in vitro
[12] = test system: monoamine metabolism; conditions: humans
[13] = doses as high as 600 mg daily
[14] = test system: sleep of healthy volunteers
[15] = molecular target: T1, MAO-A; remark: listed apart in the source
[16] = test system: PTSD patients
[17] = fluoxetine, bupropion and placebo compared

## COc1ccc2[nH]cc(CCNC(C)=O)c2c1 [Melatonin]
[1]
  sleep propensity and duration of sleep: increased sleep propensity and the duration of sleep

## CC(NC(C)(C)C)C(=O)c1cccc(Cl)c1 (stereo not shown) [bupropion]
[2]; [17]
  efficacy and patient satisfaction in women with PMDD: some improvement

## O=C1CN=C(c2ccccc2Cl)c2cc([N+](=O)[O-])ccc2N1 [clonazepam]
[3]
  cases of RSBD in which effective: approximately 90%

## CNCCCN1c2ccccc2CCc2ccccc21 [desipramine]
[4]
  antinociceptive effect: antinociceptive effect

## CNCCC(Oc1ccc(C(F)(F)F)cc1)c1ccccc1 (stereo not shown) [fluoxetine]
[2]; [17]
  efficacy and patient satisfaction in women with PMDD: greater
  tolerability in women with PMDD: well tolerated
[5]
  treatment of a range of symptoms in women with PMS: effective and well-tolerated

## COCCCC/C(=N\OCCN)c1ccc(C(F)(F)F)cc1 [fluvoxamine]
[4]
  antinociceptive effect: antinociceptive effect

## O=C(NCCN1CCOCC1)c1ccc(Cl)cc1 [moclobemide, p-chloro-N-(2-morpholinoethyl)-benzamide]
[6]
  in vitro binding to MAO-A: weak
[7]
  time to recovery of enzyme activity (reversible binding): ≤ 16 h
[8]
  affinity for dopaminergic receptors: no appreciable affinity
[9]
  affinity for adrenergic receptors: no appreciable affinity
[10]
  affinity for benzodiazepine receptors: no appreciable affinity
[11]
  affinity for opioid receptors: no appreciable affinity
[12]
  plasma levels of homovanillic acid, 3,4-dihydroxyphenylacetic acid, 3-methoxy-4-hydroxyphenylglycol and 5-hydroxyindoleacetic acid: reductions
After multiple administrations
  bioavailability: approx. 85%
In vivo
  number of different metabolites: at least 19
Patients with hepatic dysfunction
  elimination: impaired
single-dose oral administration
  absorption: almost completely absorbed
[13]
  tolerability: well-tolerated
[14]
  effects on sleep in comparison to other MAO inhibitors: weak
[4]
  antinociceptive effect: antinociceptive effect

## O=C(NCC[N+]1([O-])CCOCC1)c1ccc(Cl)cc1 [moclobemide-N-oxide, p-chloro-N-(2-morpholinoethyl)-benzamide-N′-oxide]
[15]
  MAO-A inhibitory activity: MAO-A inhibitory activity

## NNCCc1ccccc1 [phenelzine]
[16]; Frank et al.
  reduction of PTSD symptoms versus placebo: superior to placebo
[16]; open trial (Davidson et al.)
  PTSD patients helped: 8 of 11
[16]; open trial, 5 patients, after failing antipsychotics, tricyclics and psychotherapy
  response of patients with traumatic war neuroses: responded positively
[16]; treated openly for 4 to 18 weeks (Lerer et al.)
  clinical improvement in PTSD patients: only modest clinical improvement

## CN[C@H]1CC[C@@H](c2ccc(Cl)c(Cl)c2)c2ccccc21 [sertraline]
[2]; versus placebo
  treatment of PMDD, symptomatic improvement and change in reported functional impairment: significantly better than placebo
